Measurements taken from patent US6846913B1, “Crude extract from Viscum album coloratum, and proteins and lectins isolated therefrom” (Mistle Biotech Co., Ltd., priority 1999, dated 2005).

system: hemagglutination of KML-IIU and KML-IIL; design: species or system Korean mistletoe; conditions: sugars stepwise diluted from 100 mM

Row | SMILES | Minimal Conc. (mM) necessary to inhibit the hemagglutination [mM]
1 | O=C[C@H](O)[C@@H](O)[C@@H](O)[C@H](O)CO [Galactose] | 6
2 | OC[C@H]1O[C@@H](O[C@H]2[C@H](O)[C@@H](O)C(O)O[C@@H]2CO)[C@H](O)[C@@H](O)[C@H]1O (stereo partly shown) [Lactose] | 3
3 | CC(=O)N[C@H]1C(O)O[C@H](CO)[C@H](O)[C@@H]1O (stereo partly shown) [N-Acetylgalactosamine] | 3
4 | CC(=O)N[C@H]1C(O)O[C@H](CO)[C@@H](O)[C@@H]1O (stereo partly shown) [N-Acetylglucosamine] | >100
